This is an account of results in article PMC9887206, “Cationic biopolymer decorated Asiatic Acid and Centella asiatica extract incorporated liposomes for treating early-stage Alzheimer’s disease: An In-vitro and In-vivo investigation” (F1000Research, 2022).

For data set [1] the following is noted: rat p.o; cited from earlier work.
Data set [2] is described as follows: In-vitro antioxidant activity (DPPH inhibition). Type of data set: biochemical. The following applies: at 50 μg/mL, n ≥ 3. As for the experimental part: The prepared formulations' and AA's abilities to neutralise free radicals were determined in vitro and compared with standard ascorbic acid. In this method, free radical DPPH (2,2-diphenyl-1-picrylhydrazyl) was selected as described by Jamuna S. et al. 1.5 mL of 0.1mM free radial DPPH was treated with 3.5mL of 10 to 50 μg/mL concentrated methanolic solution of AA, CAE, optimised CLCAE, and CLAA. The absorbance of all the samples was measured at 518 nm through ELISA plate reader (version AM-2100, USA). The percentage of DPPH inhibition was measured through the formula. %Inhibition of DPPH=Absorptioncontrol−Absorptionsample/Absorptioncontrol×100

Data set [3] can be described thus: Ex vivo drug permeation, non-everted gut sac. Type of data set: in vitro ADME, rats. The following applies: throughout 8 hours, non-everted rat intestinal sac. As for the experimental part:
The drug intestinal permeation studies of both the optimised formulations were determined using non-everted gut sac procedure. ^, [40] The rats were sacrificed and small intestine was treated with oxygenated saline. The intestine was split into […] sacs that were 8 cm long and loaded with optimised CLCAE and CLAA (~100 mg AA). The thread was used to bind the sac's ends and located in a conical flask filled with ringer’s solution of pH 9 (10 ml). 37°C temperature was kept constant in a water bath shaker at 75 rpm with 5% CO 2 aeration. Every 20 min, for a maximum of 8 h, the samples were removed and substituted with the fresh media. RP-HPLC was used to analyse the screened sample.

Data set [4] in a line: In-vitro drug release, Franz diffusion cell with dialysis membrane. The following applies: in around 10 hours. The data set is classed as physicochemical. The protocol: The % drug release from CLCAE and CLAA were measured through Franz diffusion cell using sigma dialysis membrane and the release rate was compared with AA and CAE. 1 mL sample (100 mg/mL) was kept on one side, while the other part of the membrane was filled with the acidic buffer pH 1.2 (200 mL) dissolution media for two hours. It was then replaced with phosphate buffer pH 7.2 (2–24 hours) with 0.25% w/v sodium lauryl sulphate as two separate media to simulate the stomach and intestinal conditions. The media were sustained at the temperature of 37°C on a magnetic stirrer. A 5 mL sample was withdrawn with the specific intervals and the condition of the sink was kept constant by refilling the same volume of media. Samples were analysed and compared using RP-HPLC at 210 nm. To assess the drug release strategy from the optimised CLAA, the data were fitted to various in vitro kinetic release models like Korsmeyer-Peppas, Higuchi, Zero and First Order models. ^, [36]

The nature of data set [5]: Oral bioavailability study, AA in rat serum. The data set is classed as in vivo, wistar rats. As for the experimental part: The sum of drug availability after oral intake of AA, CLCAE, and CLAA was performed on three groups of 150-200g wistar rats (n=6). Prior to the procedure, the animals underwent an overnight fast with unlimited access to water. Group I was treated with a single dose of AA (100 mg/kg,p.o.) whereas group II, and III animals received single dose of optimised CLCAE and CLAA (~100 mg/k.g AA, p.o.), respectively. After the dosing, the animals were partially anesthetised using […], from the retro-orbital plexus 1 mL of blood samples were collected in centrifuge tubes at a predetermined time of up to 8 h. To isolate the contents, the serum sample was spun up at 3000 rpm for 10 min. The AA was quantified by RP-HPLC.
Initially, the mixture of 1 mL serum and 5 mL methanol were taken in a volumetric flask at room temperature. The sample was properly mixed before being heated for 30 min at 55°C. After that, a 10 mL flask was made up with methanol and centrifugation for 30 min at 5000 rpm (Remi Elektrotechnik Ltd. India). 20 μL of filtered supernatant was taken for analysis.
Depends on plasma concentration-time curve parameters, the C max and T max of CLCAE and CLAA were analysed. The pharmacokinetic parameters were successfully interpreted through PK/PD computer software version 4.1, USA, which includes measurement drug plasma concentration from zero to last measured sample (AUC 0 -t) and from zero to infinity (AUC 0-∞) measurement of drug elimination half-life (K 1/2el) and elimination rate constant (K el) clearance (Cl) and volume of distribution (V d). The relative bioavailability (F) of both the formulations was determined using the following formula. F=Total amount of drug absorbed from formulation(Amaxformulation)/Total amount of drug absorbed from pureAAAmaxpureAA×100 F=VdXKelXAUC0−∞formulation/VdXKelXAUC0−∞pureAA×100

The conditions of data set [6]: cited from earlier work.
[7] abbreviates: Wistar, single oral dose ~100 mg/kg AA.

`ClCCl` [dichloromethane]: the LD50 (usually the dose expected to kill half of the subjects tested) in data set [1] is 1200 mg/kg.
Turning to `O=C1O[C@H]([C@@H](O)CO)C(O)=C1O` [ascorbic acid, reference compound], the “Percentage of inhibition of DPPH” value in data set [2] was found to be 90.75 ± 1.45%.
On to `C[C@H]1[C@H](C)CC[C@]2(C(=O)O)CC[C@]3(C)C(=CC[C@@H]4[C@@]5(C)C[C@@H](O)[C@H](O)[C@@](C)(CO)[C@@H]5CC[C@]43C)[C@H]12` [AA, Asiatic acid], for which the “Amount of drug permeated (ex vivo)” value in data set [3] worked out at 30.90%. Moreover, the “In vitro drug release” value in data set [4] came out at 65.34%. For the same molecule, the “Percentage of inhibition of DPPH” value in data set [2] worked out at 65.4 ±1.2%. The Tmax in data set [5] (Wistar, 100 mg/kg, single oral dose, read-out: Time of maximum serum concentration) turned out to be 4 h. Besides, in data set [5] (setting [7]), the AUC(0-t) (commonly exposure summed from dosing to a finite time, without extrapolation to infinity) stood at 40500 ± 1160 ng·h/mL and the highest level (Cmax) was 3430 ± 120 ng/mL. For the same molecule, in data set [5] (Wistar, single oral dose ~100 mg/kg AA, read-out: Elimination half-life (t1/2el) (converted)), the half-life was 1.97 ± 0.1 h. Besides, the k el in data set [5] (Wistar, single oral dose ~100 mg/kg AA, read-out: Elimination rate constant (Kel) (converted)) was 0.000142 s⁻¹. In data set [5] (single oral dose), the Maximum serum concentration worked out at 3.43 ± 0.12 µg/mL. Moreover, in data set [5] (single oral dose ~100 mg/kg AA), the “Clearance (Cl)” value amounted to 0.55 ± 0.002 L h ^−1 and the “Volume of distribution (Vd)” value was determined as 1.62 ± 0.26 L. In data set [6], the Solubility in water entry is “insoluble in water”. Also, the BCS class entry in data set [6] (poor aqueous solubility and permeability) was “BCS IV”.
